A short description of the experiment: The apparent Km of compound as a substrate for partially purified mouse liver Folyl-polyglutamate synthase. Conditions: read-out: Ki.
For the compound `NCCCC(NC(=O)c1ccc(OCc2ccc3nc(N)[nH]c(=O)c3c2)cc1)C(=O)O` (stereo not given), the apparent Km amounted to 5.9 µM. The result for `NCCCC(NC(=O)c1ccc(SCc2ccc3nc[nH]c(=O)c3c2)cc1)C(=O)O` (stereo not given) reads 0.42 µM. The result for `NCCCC(NC(=O)c1ccc(NCc2ccc3nc(N)nc(N)c3c2Cl)cc1)C(=O)O` (stereo not given) reads 0.0017 µM. The result for `NCCCC(NC(=O)c1ccc(OCc2ccc3nc[nH]c(=O)c3c2)cc1)C(=O)O` (stereo not given) reads 1.2 µM. As to `NCCCC(NC(=O)c1ccc(SCc2ccc3nc(N)[nH]c(=O)c3c2)cc1)C(=O)O` (stereo not given), the apparent Km is 2.8 µM.
